# According to patent publication US20140094413A1, “HEPATOCYTE GROWTH FACTOR (HGF) MIMICS AS THERAPEUTIC AGENTS” (WASHINGTON STATE UNIVERSITY, priority 2012, published 2014):
# “And” between values parts separate entries of the source, which are not always exact repeats. Identical values can stand only once. “Also recorded” adds a separate entry of the source. Like-named read-outs stand apart in the source and are kept apart here. Where a SMILES comes first, the peptide text is derived from it. [ ]: non-standard residue; d: D form. dNle = CCCC[C@@H](N)C(=O)O; Ahx = NCCCCCC(=O)O
# Key:
# Microsomal metabolism = assay type: in vitro ADME, rat; details: over 90 min; data not shown
# human HGF [1] = target: T1, human HGF (Homo sapiens, UniProt P14210); assay: HGF binding, competition with 3H-Hinge; details: 1.25 ng HGF, 40 min at 37° C.; N=9
# T1 construct: purchased R&D Systems (Minneapolis, Minn.)
# Description: The binding of 6-AH analogs to HGF was assessed by competition using a soluble binding assay. 250 μl of PBS containing human HGF (1.25 ng) were incubated with ^3H-Hinge, the central dimerization domain of HGF, in the presence of varying concentrations of 6-AH analogs between 10^−13 M to 10^−7M (half-log dilutions) for 40 min at 37° C. The incubates were then spun through Bio-Gel P6 spin columns (400 μl packed volume) for 1 min to separate free and bound ^3H-Hinge and the eluent was collected. Five milliliters of scintillation fluid was added to the eluent, which contained the HGF bound ^3H-Hinge, and was then counted using scintillation counter. Total disintegrations per minute of bound ^3H-Hinge were calculated based on machine counting efficiency. The Ki values for the binding of the peptides were determined using the Prism 5. Competition binding curves were performed in triplicate.
# human HGF [2] = target: T1, human HGF; assay: HGF dimerization; assay type: biochemical; details: analogs at 10^−10 M, heparin, 30 minute incubation
# Description: HGF dimerization was assessed using PAGE followed by silver staining (Kawas et al., 2011). Human HGF at a concentration of 0.08 ng/μl with or without 6-AH analogs was incubated with heparin at a final concentration of 5 μg/ml. Loading buffer was then added to each sample and the mixture separated by native PAGE using gradient Criterion XT precast gels (4-12% Bis-Tris; Biorad Laboratories, Hercules, Calif.). Next the gel was silver stained for the detection of the HGF monomers and dimers. Bands were quantitated from digital images using a UVP phosphoimager (Upland, Calif.).
# Met = assay: Inhibition of HGF-dependent Met phosphorylation in HEK293 cells; assay type: cell-based, human; details: 10 min with HGF+/− analog
# Description: HEK293 cells were seeded in 6 well tissue culture plates and grown to 95% confluency in DMEM containing 10% FBS. The cells were serum deprived for 24 h prior to the treatment to reduce the basal levels of phospho-Met. Following serum starvation, cocktails comprised of vehicle and HGF with/without 6-AH analogs were prepared and pre-incubated for 30 min at room temperature. The cocktail was then added to the cells for 10 min to stimulate the Met receptor and downstream proteins. Cells were harvested using RIPA lysis buffer (Millipore; Billerica, Mass.) fortified with phosphatase inhibitor cocktails 1 and 2 (Sigma-Aldrich; St. Louis, Mo.). The lysate was clarified by centrifugation at 15,000 nx g for 15 min, protein concentrations were determined using the BCA total protein assay (Pierce), and then appropriate volumes of the lysates were diluted with 2× reducing Laemmli buffer and heated for ten min at 95° C. Samples containing identical amounts of protein were resolved using SDS-PAGE (Criterion, BioRad Laboratories), transferred to nitrocellulose, and blocked in Tris-buffered saline (TBS) containing 5% milk for 1 h at room temperature. The phospho-Met antibody were added to the blocking buffer at a final concentration of 1:1000 and incubated at 4° C. overnight with gentle agitation. The membranes were then washed several times with water and TBS ([…], 0.05% Tween-20), a 1:5000 dilution of horseradish-peroxidase conjugated goat anti-rabbit antiserum was added, and the membranes further incubated for 1 h at room temperature. Proteins were visualized using the Supersignal West Pico Chemiluminescent Substrate system (Pierce, Fenton, Mo.) and molecular weights determined by comparison to protein ladders (BenchMark, Invitrogen, and Kaleidoscope, BioRad). Film images were digitized and analyzed using a UVP phosphoimager.
# MDCK cells [3] = assay: HGF-dependent MDCK cell proliferation (MTT); assay type: cell-based, canine; details: analogs at 10^−10M, HGF 10 ng/ml, 4 days
# Description: 5000 MDCK cells were seeded into the wells of a 96 well plates in 10% FBS DMEM. To induce cellular quiescence, the cells were serum deprived for 24 h prior to initiating the treatments. Following serum starvation, 10 ng/ml HGF alone and with various concentrations of 6-AH analogs or PBS vehicle were added to the media. The cells were allowed to grow under these conditions for 4 days with a daily addition of 6-AH analogs. On the fourth day, 1 mg/ml of […] (MTT, Sigma-Aldrich) prepared in PBS was added to the cells and incubated for 4 h. Dimethyl sulfoxide diluted in a 0.01M glycine buffer was added to solubilize the cell membranes and the absorbance of reduced MTT in the buffer was quantitated at 590 nm using a plate reader (Biotek Synergy 2, Winooski, Vt.). HGF-dependent proliferation was determined by subtracting the basal proliferation (in the absence of HGF) from total proliferation rates in groups containing HGF.
# MDCK cells [4] = assay: Inhibition of HGF-dependent scattering in MDCK cells; assay type: cell-based, canine; details: HGF 20 ng/ml, 48 h
# Description: MDCK cells were grown to 100% confluency on the coverslips in six-well plates and washed twice with PBS. The confluent coverslips were then aseptically transferred to new six well plates containing 900 μl serum free DMEM. Norleual, Hinge peptide, and/or HGF (20 ng/ml) were added to appropriate wells. Control wells received PBS vehicle. Plates were incubated at 37° C. with 5% CO2 for 48 h. Media was removed and cells were fixed with methanol. Cells were stained with Diff-Quik Wright-Giemsa (Dade-Behring, Newark, Del.) and digital images were taken. Coverslips were removed with forceps and more digital images were captured. Pixel quantification of images was achieved using Image J and statistics were performed using Prism 5 and InStat v.3.05 (GraphPad; San Diego, Calif.).
# [5] = rat
# Blood stability studies = details: heparinized rat blood, 37° C.; single phase exponential decay
# [6] = test system: B16-F10 murine melanoma cells; assay: B16-F10 melanoma lung colony formation; assay type: in vivo, mouse; details: C57BL/6 mice, daily IP 10 μg/kg/day or 100 μg/kg/day, 14 days
# Description: Six to eight month old C57BL/6 mice were injected with 400,000 B16-F10 cells in 200 μl PBS by tail vein injection and subsequently received daily intraperitoneal injections of either D-Nle-X-Cys-NH—(CH2)5—CONH2 ([…]) or a PBS vehicle control. Two weeks later, mice were anesthetized and lungs were perfused with PBS and removed. Photos were taken and lungs were solubilized in 1% Triton x-100, 20 mM Tris, 0.15 M NaCl, 2 mM EDTA, and 0.02% sodium azide. Samples were disrupted by sonication (Mixonix, Farmingdale, N.Y.) and spun. The supernatant was transferred to a 96 well plate and melanin absorbance at 410 nm was measured using a plate reader.
# [7] = rat; remark: listed apart in the source
# T1 sequence (P14210 32-728): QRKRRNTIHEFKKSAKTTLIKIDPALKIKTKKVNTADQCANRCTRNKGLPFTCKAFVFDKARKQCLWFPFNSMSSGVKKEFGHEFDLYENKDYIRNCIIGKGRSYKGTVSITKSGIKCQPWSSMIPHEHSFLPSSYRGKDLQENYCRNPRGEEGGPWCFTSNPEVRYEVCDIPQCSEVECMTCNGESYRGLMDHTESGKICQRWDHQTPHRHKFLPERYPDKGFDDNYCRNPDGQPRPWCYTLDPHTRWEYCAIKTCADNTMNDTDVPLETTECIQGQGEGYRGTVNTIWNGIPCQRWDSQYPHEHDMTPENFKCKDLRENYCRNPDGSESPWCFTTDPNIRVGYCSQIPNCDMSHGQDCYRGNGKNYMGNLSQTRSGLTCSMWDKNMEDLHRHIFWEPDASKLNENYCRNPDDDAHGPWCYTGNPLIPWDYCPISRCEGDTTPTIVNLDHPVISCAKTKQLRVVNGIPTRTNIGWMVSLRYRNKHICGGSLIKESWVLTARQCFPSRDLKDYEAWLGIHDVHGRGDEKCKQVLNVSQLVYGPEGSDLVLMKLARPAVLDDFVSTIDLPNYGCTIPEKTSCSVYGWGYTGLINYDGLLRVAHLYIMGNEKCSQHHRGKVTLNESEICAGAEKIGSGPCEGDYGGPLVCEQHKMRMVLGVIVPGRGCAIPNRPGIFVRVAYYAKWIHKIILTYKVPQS
Phase I metabolism in rat liver microsomes (Microsomal metabolism),Ki (human HGF [1]) [nM],Inhibition of HGF dimerization (human HGF [2]),Total recovery from serum ([5]; in vivo),"AUC(0-inf) ([5]; in vivo, iv, 24 mg/kg) [ng·h/mL]","C0 ([5]; in vivo, iv, 24 mg/kg) [µg/mL]","KE (rate of elimination) ([5]; in vivo, iv, 24 mg/kg) [min − 1]","Vd ([5]; in vivo, iv, 24 mg/kg) [L/kg]","clearance ([5]; in vivo, iv, 24 mg/kg) [mL/min/kg]","t1/2 (in vivo elimination half-life) ([5]; iv, 24 mg/kg) [h]",Stability t1/2 in blood (Blood stability studies),Stability t1/2 in blood [7] [min],Structure (SMILES),Inhibition of HGF dimerization (human HGF [2]; listed as Tyr),Inhibition of HGF-dependent Met phosphorylation (Met),Inhibition of HGF-dependent MDCK cell proliferation (MDCK cells [3]),Inhibition of HGF-dependent MDCK cell scattering (MDCK cells [4]),Inhibition of HGF dimerization (human HGF [2]; listed as Cys),Inhibition of B16-F10 melanoma lung colonization [6],Inhibition of B16-F10 melanoma lung colonization ([6]; listed as D-Nle-Cys-Ile-(6)-amino-hexanoic amide)
no detectable metabolism,0.243,completely block HGF dimer formation,greater than 35%,11500,68.2 ± 32.2,0.001 ± 0.0002,104 ± 65,58.3 ± 15.6,16.87,1.33 h and 1.333 h,,CCCC[C@@H](N)C(=O)N[C@@H](Cc1ccc(O)cc1)C(=O)N[C@H](C(=O)NCCCCCC(N)=O)[C@@H](C)CC (H-[dNle]YI[Ahx]-NH2),statistically different than the HGF treated group,able to block Met auto-phosphorylation,marked inhibitory activity,different from the HGF alone group but not different from the control group,,,
,0.133,completely block HGF dimer formation,,,,,,,,,,CCCC[C@@H](N)C(=O)N[C@@H](CS)C(=O)N[C@H](C(=O)NCCCCCC(N)=O)[C@@H](C)CC [D-Nle-Cys-Ile-NH—(CH2)5—CONH2] (H-[dNle]CI[Ahx]-NH2),,able to block Met auto-phosphorylation,marked inhibitory activity,different from the HGF alone group but not different from the control group,statistically different than the HGF treated group,suppressed pulmonary colonization; also recorded: radically prevented lung colonization,obvious reduction in melanoma colonies
,,,,,,,,,,,4.6,"CCCC[C@H](N)C(=O)N[C@@H](Cc1ccc(O)cc1)C(=O)N[C@H](CN[C@@H](Cc1c[nH]cn1)C(=O)N1CCC[C@H]1C(=O)N[C@@H](Cc1ccccc1)C(=O)O)CC(C)C [Norleual, Nle-Tyr-Leu-Ψ-(CH2—NH2)^3-4-His-Pro-Phe]",,,,,,,
